How the values were obtained:
hairs of C57/B16 mouse = experiment: Tests on the C57/B16 mouse: hair growth after topical application; assay type: in vivo; details: section on the C57/B16 mouse; 1% solution in the same excipient as the Arnica montana extract
Protocol: Female mice aged 5 weeks, all identical, are used. The mice are […] on the back, so as to render the hairs unnoticeable.
0.2 ml of one of each product in the same solvent as for the test on the rabbits and at the same concentration is deposited on the backs of the mice.
A test is thus carried out by comparison between different mice, in contrast to the test on the rabbit, where the same animal represents its own control.
The product is deposited on the back, without using gauze, once daily for 5 days in a row. […] They become visible on the second day of treatment to reach approximately 1 mm from the third day, whereas the hairs begin to grow on the control mice only from the third week after the beginning of the treatment.
(§1) A solution comprising 1% of pure commercial parthenolide (Aldrich, ref. 38,428-3) and a solution comprising 1% of pure commercial cnicin (Extrasynthese, ref. 8725) are prepared in the same excipient as the Arnica montana extract and are subjected to the test on the rabbit.

[1] = tested on: hairs in the telogenic phase; experiment: Test on the rabbit: hair growth after topical application; assay type: in vivo; details: 1% solution in the same excipient as the Arnica montana extract
Protocol: Male rabbits aged at least 12 weeks and identical in age, in order for the hairs of these animals to be in the telogenic phase, which can be confirmed by shearing the animals, are used.
The test products are dissolved in pure ethanol in the proportion of a concentration of 25% (w/v). This solution is then diluted 1/10 with sweet almond oil. A concentration of active product of 2.5% is then obtained.
0.2 ml of these solutions are deposited on a gauze applied to the skin and a control, obtained by preparing the same solvent as that which was used to dissolve the active principles, is also deposited. The products and the control are left in contact with the skin for 15 minutes and then the gauze is removed. The treatment is carried out for 2 days at the rate of three applications per day at intervals of four hours.
The difference between the mean time taken by the hairs to grow on the treated parts and the control parts is subsequently evaluated.
as §1

Structure (SMILES): C=C1C(=O)O[C@@H]2/C=C(\CO)CC/C=C(\C)C[C@H](OC(=O)C(=C)[C@@H](O)CO)[C@@H]12 [cnicin]
- growth of the hairs compared with the 2.5% Arnica extract (hairs of C57/B16 mouse): approximately two times worse
- growth of the hairs compared with the Arnica extract [1]: approximately two times worse
